From US20200292529A1, “NEW DRUG SCREENING ASSAY USING REGULATORY MACROPHAGES” (Universität Regensburg, priority 2017, published 2020)
Entries after “also recorded” stand apart in the source; their conditions may differ.

B1: IFN-γ: recombinant human interferon gamma added to Mreg-T cell co-cultures (protein, UniProt P01579 24-161, looked up)
Interferon gamma: QDPYVKEAENLKKYFNAGHSDVADNGTLFLGILKNWKEESDRKIMQSQIVSFYFKLFKNFKDDQSIQKSVETIKEDMNVKFFNSNKKKRDDFEKLTNYSVTDLNVQRKAIHELIQVMAELSPAAKTGKRKRSQMLFRG

What was measured:
Foxp3+CD25+ iTreg cells [1] = test: Mreg co-culture with naïve CD4+ T cells in lidded FACS tubes, iTreg analysis by flow cytometry; type: cell-based, human; conditions: tacrolimus 1 nM to 10 μM during co-culture; n=3 donors; FIG. 1
Method: (§1) A preparation of human Mregs (“Mreg B”) was prepared in 75 cm^2 flasks according to a modified protocol of Hutchinson. Peripheral blood mononuclear cells (PBMC) were obtained from a healthy donor for use as starting material for Mreg generation. The donor was screened for relevant disease markers, including infectious diseases, not more than 30 days prior to collection of PBMC. The donor was re-screened for the same disease markers on the day of leucocyte donation. PBMC were obtained by leukapheresis using the Spectra Optia® device. Human Mregs can also be generated from leukapheresates collected with alternative devices or from whole blood samples. PBMC from leukapheresis products were further purified by Ficoll-gradient centrifugation. CD14^+ monocytes were isolated from Ficoll-separated, washed PBMC by positive magnetic bead selection using research-grade CD14 microbeads (Miltenyi Biotec, GmbH) in accordance with the manufacturer's instructions. The preparation of isolated monocytes was quality-controlled for viability and purity of CD14^+ cells and contamination with CD3^+ T cells by flow cytometry. Isolated monocytes were resuspended in Mreg culture medium at a density of 7.5×10^5 viable monocytes/ml then plated in Cell+T75 flasks (Sarstedt) at 2×10^5 viable monocytes/cm^2 in a total volume of 20 ml medium. […]

Foxp3+CD25+ iTreg cells [2] = test: Mreg-induced iTreg assay: Mreg co-culture with allogeneic CD3+ T cells in 96 well plates; type: cell-based; conditions: recombinant human IFN-γ 0-100 ng/ml during co-culture; n=8 donors; p<0.0001; FIG. 6
Method: as §1

Molecule	Mreg-mediated iTreg generation (Foxp3+CD25+ iTreg cells) (Foxp3+CD25+ iTreg cells [1])	iTreg generation versus IFN-γ concentration in the co-culture phase (linear regression) (Foxp3+CD25+ iTreg cells [2])
C=CC[C@@H]1/C=C(\C)C[C@H](C)C[C@H](OC)[C@H]2O[C@@](O)(C(=O)C(=O)N3CCCC[C@H]3C(=O)O[C@H](/C(C)=C/[C@@H]3CC[C@@H](O)[C@H](OC)C3)[C@H](C)[C@@H](O)CC1=O)[C@H](C)C[C@@H]2OC [tacrolimus]	inhibited the formation of Foxp3+CD25+ iTreg cells in a dose-dependent manner; also recorded: potently suppressed iTreg generation in a dose-dependent manner	–
B1	–	significant dose-dependent relationship
